In article PMC10754035 (Cancer Research Communications, 2023):

Legend:
binding of KRAS to RAF1 = target: T1, binding of KRAS to RAF1 (Homo sapiens, UniProt P01116, G12D); assay: Co-immunoprecipitation of KRAS and RAF1; type: cell-based; conditions: Panc0203 and Panc1 cells, 20 µmol/L, 15 minutes
T1 construct: endogenous in cells; host or cells: Panc0203 and Panc1 human pancreatic cancer cells
Procedure: Human pancreatic cancer cell lines Panc0203 and Panc1 were treated with DMSO control or 20 µmol/L KRB456 for 15 minutes. Cells were then washed twice with ice-cold PBS, followed by addition of lysis buffer [25 mmol/L Tris (pH 7.5), 150 mmol/L NaCl, 1 mmol/L EDTA (pH 8.0), 1% NP-40, 5% glycerol and protease and phosphatase inhibitor cocktail tablet (Thermo Fisher Scientific)]. Cell lysates were centrifuged, and the lysate supernatants from Panc0203 (1 mg) and Panc1 (1 mg) were precleared using Protein A/G PLUS-Agarose beads (Santa Cruz Biotechnology), for 30 minutes at 4°C, and 30 µg RAS antibody (Abcam, catalog no. ab180772) was then added to the precleared supernatants and the mixture rocked overnight at 4°C. Separate normal rabbit IgG (EMD Millipore, catalog no. 12-370) mixtures were used as internal control. After incubation, immunoprecipitates were collected by adding 30 µL of Protein A/G PLUS-Agarose beads and rocking the mixtures for 4 hours at 4°C. After incubation beads were washed four times with lysis buffer and boiled at 100°C for 10 minutes with 4X Laemmli sample buffer (Bio-Rad) and analyzed by Western blotting as described below.

KRAS G12C = target: T2, KRAS G12C (Homo sapiens, UniProt P01116, G12C); assay: Isothermal titration calorimetry, KRAS G12C; type: binding; conditions: ITC, KRAS G12C-NE
T2 construct: Human His-tagged KRAS4B (1-169) G12D, G12V and G12C were custom synthesized; 6His (pET-28a(+)-TEV vector) (N); host or cells: E. coli BL21 star (DE3)
Procedure: All isothermal titration calorimetry (ITC) experiments were carried out at 25°C on a MicroCal PEAQ ITC Automated (Malvern). […] The final ITC buffer in the syringe and the cell was 25 mmol/L Tris HCl (pH 8.0), 100 mmol/L NaCl, 0.1 mmol/L DTT, 5% glycerol, 1% NP40, 5 mmol/L MgCl2, and 5% DMSO. ITC titration experiments were carried out with 19 injections, 2 µL per injection, and 150 seconds spacing between each injection. Reference cell power was set to 5 µcal/second and stirring speed was 750 rpm. Data were analyzed using a one site binding model with the Malvern analysis software. All ITC experiments were performed at the biophysical facility at the Institute for Structural Biology, Drug Discovery and Development (ISB3D) at Virginia Commonwealth University (Richmond, VA) and the Massey Cancer Center.
Expression and purification of RAS proteins: Human His-tagged KRAS4B (1-169) G12D, G12V and G12C were custom synthesized and cloned into pET-28a(+)-TEV vector to generate pET-28a(+)-6His-KRAS (1-169) plasmids by GenScript USA Inc., Piscataway, NJ. The proteins were expressed and purified as described below. […]

T1 sequence (P01116 1-188 isoform P01116-2 G12D): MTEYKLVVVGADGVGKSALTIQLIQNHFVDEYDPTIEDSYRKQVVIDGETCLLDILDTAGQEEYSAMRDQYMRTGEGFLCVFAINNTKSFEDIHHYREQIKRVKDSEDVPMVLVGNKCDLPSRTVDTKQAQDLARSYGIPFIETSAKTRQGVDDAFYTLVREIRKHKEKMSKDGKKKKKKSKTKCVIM
T2 sequence (P01116 1-169 isoform P01116-2 G12C): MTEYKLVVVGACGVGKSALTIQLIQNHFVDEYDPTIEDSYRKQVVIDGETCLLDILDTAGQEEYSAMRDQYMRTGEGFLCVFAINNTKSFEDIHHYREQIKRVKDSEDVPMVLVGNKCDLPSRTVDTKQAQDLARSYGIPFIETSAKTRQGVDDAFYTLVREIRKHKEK

What does the source list for COC(=O)C1C2C3(C)C(=O)C=CC2(OC3=O)C2CCC3(CBr)CC12CC3=O (centres unmarked) [KRB-456]?
binding of KRAS to RAF1 in intact cells (binding of KRAS to RAF1): inhibited the binding of KRAS to RAF1; Kd (KRAS G12C): 1410 nM
